According to patent US20190070174A1, “METHODS OF TREATING NEURODEGENERATIVE DISEASES” (priority 2016, published 2019):

How the values were obtained:
[1] = Pharmacokinetics after intraperitoneal injection; type: in vivo, mouse; conditions: 15 mg/kg IP, mice
[2] = mouse, in vivo; cited from earlier work
[3] = test system: human ATXN3; assay: Subchronic treatment of Q84 mice, immunoblot of soluble lysates; type: in vivo; conditions: 15 mg/kg IP daily for 10 days
Method: (§1) YACMJD84.2 transgenic mice were housed in cages with a maximum number of five animals and maintained in a standard 12-hour light/dark cycle with food and water ad libitum. Genotyping was performed using DNA isolated from tail biopsy at the time of weaning, and genotypes of all studied mice were confirmed using DNA extracted from tails collected post-mortem. […] Five hours after the final injection, mice were anesthetized with ketamine/xylazine and perfused transcardially with phosphate buffered saline (PBS) (for RNA and protein studies), and brains were immediately placed on dry ice and stored at −80° C.
(§2) Protein lysates from cell cultures, mouse brain slices or mouse brains were obtained by lysis in RIPA buffer containing protease inhibitors (Complete, Roche Diagnostics), followed by sonication and centrifugation. The supernatants (soluble protein fractions) were collected, total protein concentration was determined using the BCA method (Pierce) and then stored at −80° C. […] Pellets corresponding to insoluble protein fractions were resuspended in 100 μL of Laemmli buffer 2× and boiled for 10 min. Insoluble proteins were then quantified, and 100 μg were loaded in a filter trap assay apparatus and transferred to a nitrocellulose membrane (0.45 μm pore) that was incubated overnight with rabbit anti-MJD antibody (1:5000) at 4° C. Bound primary antibodies were visualized by incubation with a peroxidase-conjugated anti-mouse or anti-rabbit secondary antibody (1:10000; Jackson Immuno Research Laboratories) followed by treatment with the ECL-plus reagent (Western Lighting, PerkinElmer) and exposure to autoradiography films. Band intensity was quantified by densitometry using ImageJ.
(§3) Five hours after the final injection on day 10, mice were sacrificed and brains collected for total protein and RNA extraction from different regions: brainstem, cerebellum, cervical spinal cord, and forebrain.

[4] = test system: endogenous mouse Atxn3; assay: as above; type: in vivo; conditions: 15 mg/kg IP daily for 10 days
Method: as §1, §2, §3

[5] = test system: mouse Atxn3; assay: Organotypic brain slice cultures from YACMJD84.2 (Q84) mice, immunoblotting; type: cell-based; conditions: sagittal brain slices treated for 48 hours, cerebellum and brainstem
Method: Nine slices per brain were used in each set of cultures. […] After 48 hours of incubation at 37° C./5% CO2, brain slices were assessed for ATXN3 levels by immunoblotting or immunofluorescence and for cell viability. For immunoblotting, each slice was macrodissected into separate cerebellum and brainstem that were immediately frozen at −80° C. in 80 μL and 150 μL of cold RIPA buffer containing protease inhibitors (Complete, Roche Diagnostics), respectively. Cell viability was assessed on treated slices by incubation in propidium iodide (PI) 1 μg/mL in culture medium for 1 hour. Slices were then mounted in PROLONG Gold Antifade Reagent (Invitrogen) and imaged using a FV500 Olympus confocal microscope.
Protein lysates from cell cultures, mouse brain slices or mouse brains were obtained by lysis in RIPA buffer containing protease inhibitors (Complete, Roche Diagnostics), followed by sonication and centrifugation. The supernatants (soluble protein fractions) were collected, total protein concentration was determined using the BCA method (Pierce) and then stored at −80° C. […] Insoluble proteins were then quantified, and 100 μg were loaded in a filter trap assay apparatus and transferred to a nitrocellulose membrane (0.45 μm pore) that was incubated overnight with rabbit anti-MJD antibody (1:5000) at 4° C. […] Band intensity was quantified by densitometry using ImageJ. […]

[6] = test system: ATXN3Q26; assay: Thioflavin T (ThT) fluorescence fibril formation assay; type: biochemical, human; conditions: ATXN3Q26 10 μM, compound 400 μM
Method: (§4) pGEX-6P1 plasmids encoding GST-ATXN3Q26 and GST-ATXN3Q55 were transformed in Rosetta (DE3) BL21 cells. Colonies grown overnight in LB/ampicillin/chloramphenicol plates at 37° C. were resuspended in 150 mL of the same selection medium and incubated at 37° C., 230 rpm for 2 hours. Bacterial cultures of 1 L of medium were prepared by inoculating 50 mL of the pre-culture and incubating at 37° C., 230 rpm until reaching an OD (600 nm) of 0.6 to 0.8. Expression of fusion proteins was then induced by adding 1 mM isopropyl-1-thio-D-galactopyranoside (IPTG) for 3 hours at 37° C. Cells were collected by centrifugation and stored at −20° C. […] Chromatography fractions were analyzed by SDS-PAGE, and the ones containing pure proteins were concentrated and protein concentration was determined in the Nanodrop (Thermo Scientific) by absorption at 280 nm.
(§5) Samples and blank control (only buffer) (110 μL) were dispensed in each well of a Black/Clear flat bottom 96-well plate (Corning), which was sealed and incubated at 37° C. with agitation in a FLUOstar Omega (BMG Labtech Inc) plate reader. Fluorescence of three replicates of each sample was measured every 10 min for up to 5 days. The […] wavelengths of the filter were 440 nm and 490 nm, respectively, and readings were taken using 90% gain adjustment. Values for protein solutions were normalized to readings of blank buffer.

[7] = test system: ATXN3Q55; assay: as above; type: biochemical, human; conditions: ATXN3Q55 10 μM, compound 400 μM
Method: as §4, §5

SMILES: O=C1CCc2ccc(OCCCCN3CCN(c4cccc(Cl)c4Cl)CC3)cc2N1 [aripiprazole]
- time of maximal concentration in the brain post-injection [1]: 30 min
- maximum tolerable dose [2]: 15 mg/kg
- HMW ATXN3 species, of levels in vehicle-treated mice ([3]; brainstem, Q84 mice): 44%
- levels of monomeric human ATXN3 ([3]; soluble lysates): trend toward decreased levels
- levels of endogenous mouse Atxn3 [4]: trend toward decreased levels
- levels of mouse Atxn3 [5]: reduced levels
- fibril formation by normal ATXN3Q26 [6]: did not interfere with fibril formation
- kinetics of ATXN3Q55 fibril formation in the presence or absence of compound [7]: identical
